Assay results published in US10968217B2, “Tetrahydropyridopyrimidines for the treatment and prophylaxis of hepatitis B virus infection” (Hoffmann-La Roche Inc., priority 2016, dated 2021).

Test system: HBsAg
Assay: HBsAg assay (CLIA of secreted HBsAg in HepG2.2.15 culture supernatant)
Assay type: cell-based, HBV
Details: Hepatitis B virus, HepG2.2.15, read-out: IC50 (HBsAg assay)
Method: HepG2.2.15 cells (Acs et al. Proc Natl Acad Sci USA, 84, (1987), 4641-4), a constitutively HBV-expressing cell line were cultured in DMEM+Glutamax-I medium (Invitrogen, Carlsbad, Calif., USA), supplemented with 10% fetal bovine serum (Invitrogen) and G418 (Invitrogen) at a final concentration of 200 mg/L and maintained in 5% CO2 at 37° C.
HepG2.2.15 cells were seeded in duplicate into white, 96-well plates at 1.5×10^4 cells/well. The cells were treated with a three-fold serial dilution series of the compounds in DMSO. The final DMSO concentration in all wells was 1% and DMSO was used as no drug control.
The HBsAg chemiluminescence immunoassay (CLIA) kit (Autobio Diagnostics Co., Zhengzhou, China, Catalog number: CL0310-2) was used to measure the levels of secreted HBV antigens semi-quantitatively. For the detection 50 μL/well culture supernatant was used and HBsAg was quantified using HBsAg chemiluminescence immunoassay (CLIA) kit (Autobio Diagnostics Co., Zhengzhou, China, Catalog number: CL0310-2), 50 μL of the supernatant was transferred to the CLIA assay plate and 50 μL of enzyme conjugate reagent was added into each well. The plates were sealed and gently agitated for 1 hour at room temperature. The supernatant-enzyme-mixture was discarded and wells were washed 6 times with 300 μL of PBS. The residual liquid was removed by plating the CLIA plate right side down on absorbent tissue paper. 25 μL of substrates A and B were added to each well. Luminance was measured using a luminometer (Mithras LB 940 Multimode Microplate Reader) after 10 minutes incubation. Dose-response curves were generated and the IC50 value was extrapolated by using the E-WorkBook Suite (ID Business Solutions Ltd., Guildford, UK). The IC50 was defined as the compound concentration at which HBsAg secretion was reduced by 50% compared to the no drug control.

Structure (SMILES) | IC50 [µM]
Cc1ccc(C(=O)N2CCc3nc(-c4ccccn4)ncc3C2)cc1F [Example 28, (3-Fluoro-4-methyl-phenyl)-[2-(2-pyridyl)-7,8-dihydro-5H-pyrido[4,3-d]pyrimidin-6-yl]methanone] | 9.34
O=C(c1ccc(O)c(F)c1)N1CCc2nc(-c3ccccn3)ncc2C1 [Example 12, (3-Fluoro-4-hydroxy-phenyl)-[2-(2-pyridyl)-7,8-dihydro-5H-pyrido[4,3-d]pyrimidin-6-yl]methanone] | 21.4
COc1ccc(C(=O)N2CCc3nc(-c4ccccn4)ncc3C2)cc1OC [Example 22, (3,4-Dimethoxyphenyl)-[2-(2-pyridyl)-7,8-dihydro-5H-pyrido[4,3-d]pyrimidin-6-yl]methanone] | 28
COc1cc(F)cc(C(=O)N2CCc3nc(-c4ccccn4)ncc3C2)c1 [Example 38, (3-Fluoro-5-methoxy-phenyl)-[2-(2-pyridyl)-7,8-dihydro-5H-pyrido[4,3-d]pyrimidin-6-yl]methanone] | 21.7
CC1c2cnc(-c3ccccn3)nc2CCN1C(=O)c1nccs1 (stereo not shown) [Example 51, [5-Methyl-2-(2-pyridyl)-7,8-dihydro-5H-pyrido[4,3-d]pyrimidin-6-yl]-thiazol-2-yl-methanone] | 0.627
CC1c2cnc(-c3ccccn3)nc2CCN1C(=O)c1ccsc1 (stereo not shown) [Example 44, [5-Methyl-2-(2-pyridyl)-7,8-dihydro-5H-pyrido[4,3-d]pyrimidin-6-yl]-(3-thienyl)methanone] | 2.46
CC1c2cnc(-c3ccccn3)nc2CCN1C(=O)c1cncs1 (stereo not shown) [Example 54, [5-Methyl-2-(2-pyridyl)-7,8-dihydro-5H-pyrido[4,3-d]pyrimidin-6-yl]-thiazol-5-yl-methanone] | 11.5
O=C(c1cccc(C(F)(F)F)c1)N1CCc2nc(-c3ccccn3)ncc2C1 [Example 6, [2-(2-Pyridyl)-7,8-dihydro-5H-pyrido[4,3-d]pyrimidin-6-yl]-[3-(trifluoromethyl)phenyl]methanone] | 18.7
CC1c2cnc(-c3ccccn3)nc2CCN1C(=O)c1cc2ccccc2s1 (stereo not shown) [Example 48, Benzothiophen-2-yl-[5-methyl-2-(2-pyridyl)-7,8-dihydro-5H-pyrido[4,3-d]pyrimidin-6-yl]methanone] | 0.472
COCCCOc1ccc(C(=O)N2CCc3nc(-c4ncccn4)ncc3C2C)cc1Cl (stereo not shown) [Example 40, [3-Chloro-4-(3-methoxypropoxy)phenyl]-(5-methyl-2-pyrimidin-2-yl-7,8-dihydro-5H-pyrido[4,3-d]pyrimidin-6-yl)methanone] | 1.93
Cc1ncoc1C(=O)N1CCc2nc(-c3ccccn3)ncc2C1C (stereo not shown) [Example 45, (4-Methyloxazol-5-yl)-[5-methyl-2-(2-pyridyl)-7,8-dihydro-5H-pyrido[4,3-d]pyrimidin-6-yl]methanone] | 1.43
Cc1ccc(C(=O)N2CCc3nc(-c4ccccn4)ncc3C2)cn1 [Example 31, (6-Methyl-3-pyridyl)-[2-(2-pyridyl)-7,8-dihydro-5H-pyrido[4,3-d]pyrimidin-6-yl]methanone] | 31.9
CCOc1cc(OCC)cc(C(=O)N2CCc3nc(-c4ccccn4)ncc3C2)c1 [Example 17, (3,5-Diethoxyphenyl)-[2-(2-pyridyl)-7,8-dihydro-5H-pyrido[4,3-d]pyrimidin-6-yl]methanone] | 7.66
O=C(c1ccc(Cl)cc1)N1CCc2nc(-c3ccccn3)ncc2C1 [Example 5, (4-Chlorophenyl)-[2-(2-pyridyl)-7,8-dihydro-5H-pyrido[4,3-d]pyrimidin-6-yl]methanone] | 11.4
COc1ccc(C(=O)N2CCc3nc(-c4ccccn4)ncc3C2)nc1 [Example 29, (5-Methoxy-2-pyridyl)-[2-(2-pyridyl)-7,8-dihydro-5H-pyrido[4,3-d]pyrimidin-6-yl]methanone] | 34.2
O=C(c1ccc(F)c(O)c1)N1CCc2nc(-c3ccccn3)ncc2C1 [Example 11, (4-Fluoro-3-hydroxy-phenyl)-[2-(2-pyridyl)-7,8-dihydro-5H-pyrido[4,3-d]pyrimidin-6-yl]methanone] | 21
COc1ccc(C(=O)N2CCc3nc(-c4ccccn4)ncc3C2)cc1Cl [Example 21, (3-Chloro-4-methoxy-phenyl)-[2-(2-pyridyl)-7,8-dihydro-5H-pyrido[4,3-d]pyrimidin-6-yl]methanone] | 5.07

Structure (SMILES) | IC50 [µM]
COc1cc(C(=O)N2CCc3nc(-c4ccccn4)ncc3C2)ccc1O [Example 25, (4-Hydroxy-3-methoxy-phenyl)-[2-(2-pyridyl)-7,8-dihydro-5H-pyrido[4,3-d]pyrimidin-6-yl]methanone] | 34.3
COCCOc1ccc(C(=O)N2CCc3nc(-c4ccccn4)ncc3C2)cc1F [Example 14, [3-Fluoro-4-(2-methoxyethoxy)phenyl]-[2-(2-pyridyl)-7,8-dihydro-5H-pyrido[4,3-d]pyrimidin-6-yl]methanone] | 20
COCCCOc1ccc(C(=O)N2CCc3nc(-c4ccccn4)ncc3C2)cc1Cl [Example 24, [3-Chloro-4-(3-methoxypropoxy)phenyl]-[2-(2-pyridyl)-7,8-dihydro-5H-pyrido[4,3-d]pyrimidin-6-yl]methanone] | 3.18
Cc1ccc(C(=O)N2CCc3nc(-c4ccccn4)ncc3C2)nc1 [Example 27, (5-Methyl-2-pyridyl)-[2-(2-pyridyl)-7,8-dihydro-5H-pyrido[4,3-d]pyrimidin-6-yl]methanone] | 24.2
COc1ccc2[nH]nc(C(=O)N3CCc4nc(-c5ncccn5)ncc4C3C)c2c1 (stereo not shown) [Example 66, (5-Methoxy-1H-indazol-3-yl)-(5-methyl-2-pyrimidin-2-yl-7,8-dihydro-5H-pyrido[4,3-d]pyrimidin-6-yl)methanone] | 1.36
COc1cc(C(=O)N2CCc3nc(-c4ccccn4)ncc3C2)ccc1F [Example 9, (4-Fluoro-3-methoxy-phenyl)-[2-(2-pyridyl)-7,8-dihydro-5H-pyrido[4,3-d]pyrimidin-6-yl]methanone] | 11.5
Cc1ccc(C(=O)N2CCc3nc(-c4ccccn4)ncc3C2C)s1 (stereo not shown) [Example 43, [5-Methyl-2-(2-pyridyl)-7,8-dihydro-5H-pyrido[4,3-d]pyrimidin-6-yl]-(5-methyl-2-thienyl)methanone] | 0.326
COc1cc(Cl)cc(C(=O)N2CCc3nc(-c4ccccn4)ncc3C2)c1 [Example 18, (3-Chloro-5-methoxy-phenyl)-[2-(2-pyridyl)-7,8-dihydro-5H-pyrido[4,3-d]pyrimidin-6-yl]methanone] | 10
CC1c2cnc(-c3ccccn3)nc2CCN1C(=O)c1ccc2cc[nH]c2c1 (stereo not shown) [Example 46, 1H-ndol-6-yl-[5-methyl-2-(2-pyridyl)-7,8-dihydro-5H-pyrido[4,3-d]pyrimidin-6-yl]methanone] | 2.08
COCCCOc1ccc(C(=O)N2CCc3nc(-c4ccccn4)ncc3C2)cc1F [Example 15, [3-Fluoro-4-(3-methoxypropoxy)phenyl]-[2-(2-pyridyl)-7,8-dihydro-5H-pyrido[4,3-d]pyrimidin-6-yl]methanone] | 4.89
CC1c2cnc(-c3ncccn3)nc2CCN1C(=O)c1n[nH]c2ccc(F)cc12 (stereo not shown) [Example 64, (5-Fluoro-1H-indazol-3-yl)-(5-methyl-2-pyrimidin-2-yl-7,8-dihydro-5H-pyrido[4,3-d]pyrimidin-6-yl)methanone] | 0.21
COc1cc(C(=O)N2CCc3nc(-c4ccccn4)ncc3C2)cc(OC)c1OC [Example 16, [2-(2-Pyridyl)-7,8-dihydro-5H-pyrido[4,3-d]pyrimidin-6-yl]-(3,4,5-trimethoxyphenyl)methanone] | 8.23
O=C(c1ccc(F)cc1)N1CCc2nc(-c3ccccn3)ncc2C1 [Example 8, (4-Fluorophenyl)-[2-(2-pyridyl)-7,8-dihydro-5H-pyrido[4,3-d]pyrimidin-6-yl]methanone] | 16.4
CC1c2cnc(-c3ccccn3)nc2CCN1C(=O)c1ncc[nH]1 (stereo not shown) [Example 56, 1H-Imidazol-2-yl-[5-methyl-2-(2-pyridyl)-7,8-dihydro-5H-pyrido[4,3-d]pyrimidin-6-yl]methanone] | 1.08
CC1c2cnc(-c3ncccn3)nc2CCN1C(=O)c1n[nH]c2ccccc12 (stereo not shown) [Example 63, 1H-indazol-3-yl-(5-methyl-2-pyrimidin-2-yl-7,8-dihydro-5H-pyrido[4,3-d]pyrimidin-6-yl)methanone] | 0.45
COc1ccc(C(=O)N2CCc3nc(-c4ccccn4)ncc3C2)cc1F [Example 7, (3-Fluoro-4-methoxy-phenyl)-[2-(2-pyridyl)-7,8-dihydro-5H-pyrido[4,3-d]pyrimidin-6-yl]methanone] | 4.86
Cc1csc(C(=O)N2CCc3nc(-c4ccccn4)ncc3C2C)c1 (stereo not shown) [Example 41, [5-Methyl-2-(2-pyridyl)-7,8-dihydro-5H-pyrido[4,3-d]pyrimidin-6-yl]-(4-methyl-2-thienyl)methanone] | 0.38
